In patent publication US6268391A, “Benzylidene-1,3-dihydro-indol-2-one derivatives a receptor tyrosine kinase inhibitors, particularly of Raf kinases” (Glaxo Wellcome Inc., priority 1997, dated 2001):
Where two headings read alike, the source gives them in different places.

Biological target: T1, Human cRaf1 (Homo sapiens, UniProt P04049)
T1 construct: poly-histidine (C); made in house
Experiment: Raf kinase assay (cRaf1 assay / Raf/MEK cascade assay)
Format: biochemical

[1] = Table 3, read-out: Raf Kinase activity

Row | IC50 [1] | Compound | IC50
1 | < 1000 nM | CCc1ccc2c(c1)C(=Cc1cc(Br)c(O)c(Br)c1)C(=O)N2 [Example 120, 3-(3,5-Dibromo-4-hydroxy-benzylidine)-5-ethyl-1,3-dihydro-indol-2-one] | –
2 | < 1000 nM | Nc1nc2ccc3c(c2s1)C(=Cc1cc(Br)c(O)c(Br)c1)C(=O)N3 [Example 135, 2-Amino-8-(3,5-dibromo-4-hydroxy-benzylidene)-6,8-dihydro-1-thia-3,6-diaza-as-indacen-7-one] | –
3 | < 1000 nM | O=C1Nc2ccc(NC(=O)c3ccccc3)cc2C1=Cc1cc(Br)c(O)c(Br)c1 [Example 158, N-3-[(3,5-Dibromo-4-hydroxyphenyl)methylidene]-2-oxo-2,3-dihydro-1H-indol-5-ylbenzamide] | –
4 | < 1000 nM | 5-{2-[N-Benzyl-N-(2-hydroxy-acetyl)-amino]-ethyl}-3-(3,5-dibromo-4-hydroxy-benzylidene)-1,3-dihydro-indol-2-one [Example 78] | –
5 | 10000 to 100000 nM | CC(C)COC(=O)Oc1c(Br)cc(C=C2C(=O)Nc3ccc(Cl)cc32)cc1Br [Example 148, 2,6-Dibromo-4-[(5-chloro-2-oxo-1,2-dihydro-3H-indol-3-ylidene)methyl]phenyl isobutyl carbonate] | –
6 | < 1000 nM | O=C1Nc2ccc(-c3cccnc3)cc2C1=Cc1cc(Br)c(O)c(Br)c1 [Example 138, 3-(3,5-Dibromo-4-hydroxy-benzylidene)-5-pyrid-3-yl-1,3-dihydro-indol-2-one] | –
7 | < 1000 nM | O=C1Nc2ccc(C(=O)NCc3ccccc3)cc2C1=Cc1cc(Br)c(O)c(Br)c1 [Example 162, N-Benzyl-3-[(3,5-dibromo-4-hydroxyphenyl)methylidene]-2-oxo-5-indolinecarboxamide] | –
8 | < 1000 nM | COC(=O)c1sccc1-c1ccc2c(c1)C(=Cc1cc(Br)c(O)c(Br)c1)C(=O)N2 [Example 177, Methyl 3-3-[(3,5 dibromo-4-hydroxyphenyl)methylidene]-2-oxo-2,3-dihydro-1H-indol-5-yl-2-thiophenecarboxylate] | –
9 | 1000 to 10000 nM | COc1cc(C=C2C(=O)Nc3ccccc32)cc(I)c1O [Example 102, 3-(4-Hydroxy-3-iodo-5-methoxy-benzylidene)-1,3-dihydro-indol-2-one] | –
10 | < 1000 nM | O=C1Nc2ccc(C(=O)NCCO)cc2C1=Cc1cc(Br)c(O)c(Br)c1 [Example 172, 3-[(3,5-Dibromo-4-hydroxyphenyl)methylidene]-N-(2-hydroxyethyl)-2-oxo-5-indolinecarboxamide] | –
11 | < 1000 nM | CCN(CC)S(=O)(=O)c1ccc2c(c1)C(=Cc1cc(Cl)c(O)c(Cl)c1)C(=O)N2 [Example 115, 3-(3,5-Dichloro-4-hydroxy-benzylidene)-2-oxo-2,3-dihydro-1H-indol-5-sulfonic acid diethylamide] | –
12 | < 1000 nM | O=C1Nc2cc(Br)ccc2C1=Cc1cc(Br)c(O)c(Br)c1 [Example 123, 6-Bromo-3-(3,5-dibromo-4-hydroxy-benzylidene)-1,3-dihydro-indol-2-one] | –
13 | < 1000 nM | O=C1Nc2ccc(C3=NNC(=S)NC3)cc2C1=Cc1cc(Br)c(O)c(Br)c1 [Example 129, 3-(3,5-Dibromo-4-hydroxy-benzylidene)-5-(3-thioxo-2,3,4,5-tetrahydro-[1,2,4]-triazine-6-yl)-1,3-dihydro-indol-2-one] | –
14 | < 1000 nM | Nc1ccc2c(c1)C(=Cc1cc(Br)c(O)c(Br)c1)C(=O)N2 [Example 166, 5-Amino-3-[(3,5-dibromo-4-hydroxyphenyl)methylidene]-1,3-dihydro-2H-indol-2-one] | –
15 | < 1000 nM | CN1CCN(CC(=O)c2ccc3c(c2)C(=Cc2cc(Br)c(O)c(Br)c2)C(=O)N3)CC1 [Example 110, 3-(3,5-Dibromo-4-hydroxy-benzylidene)-5-[2-(4-methyl-piperazin-1-yl)-acetyl]-1,3-dihydro-indol-2-one] | –
16 | 10000 to 100000 nM | CC(C)(C)C(=O)OCOc1c(Br)cc(C=C2C(=O)Nc3ccc(Cl)cc32)cc1Br [Example 150, 2,6-Dibromo-4-[(5-chloro-2-oxo-1,2-dihydro-3H-indol-3-ylidene)methyl]phenoxymethyl pivalate] | –
17 | < 1000 nM | CC(=O)c1ccc2c(c1)C(=Cc1cc(Br)c(O)c(Br)c1)C(=O)N2 [Example 89, 5-Acetyl-3-(3,5-dibromo-4-hydroxy-benzylidene)-1,3-dihydro-indol-2-one] | –
18 | 10000 to 100000 nM | CC(C)(C)C(=O)OCOc1c(Br)cc(C=C2C(=O)Nc3ccc(I)cc32)cc1Br [Example 80, 2,2-Dimethyl-propionic acid,2,6-dibromo-4-(5-iodo-2-oxo-1,3-dihydro-indol-3-ylidenemethyl)-phenoxymethyl ester] | –
19 | < 1000 nM | O=C1Nc2c(I)cc(C(=O)CCl)cc2C1=Cc1cc(Br)c(O)c(Br)c1 [Example 86, 5-(2-Chloro-acetyl)-3-(3,5-dibromo-4-hydroxy-benzylidene)-7-iodo-1,3-dihydro-indol-2-one] | –
20 | 1000 to 10000 nM | COc1cc(C=C2C(=O)Nc3ccccc32)cc([N+](=O)[O-])c1O [Example 101, 3-(4-Hydroxy-3-methoxy-5-nitro-benzylidene)-1,3-dihydro-indol-2-one] | –

Further lines, the compound ahead of its results:

Row | Compound | IC50 [1] | IC50
21 | O=C1Nc2ccc(Br)cc2C1=Cc1cc(I)c(O)c(I)c1 [Example 44, 5-Bromo-3-(3,5-diiodo-4-hydroxy-benzylidene)-1,3-dihydro-indol-2-one] | < 1000 nM | –
22 | CN(C)CCN(C)S(=O)(=O)c1ccc2c(c1)C(=Cc1cc(Br)c(O)c(Br)c1)C(=O)N2 [Example 36, 3-(3,5-Dibromo-4-hydroxy-benzylidene)-2-oxo-2,3-dihydro-1H-indol-5-sulfonic acid (N-2-dimethylamino-ethyl)-N-methyl-amide] | < 1000 nM | –
23 | Cc1nc(-c2ccc3c(c2)C(=Cc2cc(Br)c(OC(=O)N(CCO)CCO)c(Br)c2)C(=O)N3)cs1 [Example 144, N[bis(2-Hydroxyethyl)]-carbamic acid 2,6 dibromo-4-[5-(2-methyl-thiazol-4-yl)-2-oxo-1,2-dihydro-indol-3-ylidenemethyl]-phenyl ester] | 10000 to 100000 nM | –
24 | CN1CCN(C(=O)Oc2c(Br)cc(C=C3C(=O)Nc4ccc(I)cc43)cc2Br)CC1 [Example 153, 2,6-Dibromo-4-[(5-iodo-2-oxo-1,2-dihydro-3H-indol-3-ylidene)methyl]phenyl 4-methyltetrahydro-1(2H)-pyrazinecarboxylate] | – | 10000 to 100000 nM
25 | CCOc1cc(C=C2C(=O)Nc3ccc(C(=O)CC(C)C)cc32)cc(Br)c1O [Example 10, 3-(3-Bromo-5-ethoxy-4-hydroxy-benzylidene)-5-(3-methyl-butanoyl)-1,3-dihydro-indol-2-one] | < 1000 nM | –
26 | COc1cc(C=C2C(=O)Nc3ccc(OC(F)(F)F)cc32)cc(Br)c1O [Example 61, 3-(3-Bromo-4-hydroxy-5-methoxy-benzylidene)-5-trifluoromethoxy-1,3-dihydro-indol-2-one] | < 1000 nM | –
27 | CC(C)N(C(=O)Oc1c(Br)cc(C=C2C(=O)Nc3ccc(Cl)cc32)cc1Br)C(C)C [Example 106, 2,6-Dibromo-4-[(5-chloro-2-oxo-1,2-dihydro-3H-indol-3-ylidene)methyl]phenyl N,N-diisopropylcarbamate] | 10000 to 100000 nM | –
28 | COC(=O)c1ccc2c(c1)C(=Cc1cc(Br)c(O)c(Br)c1)C(=O)N2 [Example 20, 3-(3,5-Dibromo-4-hydroxy-benzylidene)-2-oxo-2,3-dihydro-1H-indol-5-carboxylic acid methyl ester] | < 1000 nM | –
29 | O=C1Nc2ccc(I)cc2C1=Cc1cc(Br)c(OC(=O)N(CCO)CCO)c(Br)c1 [Example 87, N-[bis-(2-hydroxy-ethyl)]carbamic acid, 2,6-dibromo-4-(5-iodo-2-oxo-1,3-dihydro-indol-3-ylidenemethyl) phenyl ester] | 10000 to 100000 nM | –
30 | O=C1Nc2ccc(OC(F)(F)F)cc2C1=Cc1cc(I)c(O)c(I)c1 [Example 45, 3-(3,5-diiodo-4-Hydroxy-benzylidene)-5-trifluoromethoxy-1,3-dihydro-indol-2-one] | < 1000 nM | –
31 | O=C1Nc2ccc(C(=O)CN(CCO)CCCO)cc2C1=Cc1cc(Br)c(O)c(Br)c1 [Example 70, 3-(3,5-Dibromo-4-hydroxy-benzylidene)-5-{2-[(N-2-hydroxy-ethyl)-N-(3-hydroxy-propyl)-amino]-acetyl}-1,3-dihydro-indol-2-one] | < 1000 nM | –
32 | O=C1Nc2ccc(Cl)cc2C1=Cc1cc(Br)c(O)c(Br)c1 [Example 38, 5-Chloro-3-(3,5-dibromo-4-hydroxy-benzylidene)-1,3-dihydro-indol-2-one] | < 1000 nM | –
33 | O=C1Nc2ccc(OC(F)(F)F)cc2C1=Cc1cc(Br)c(O)c(Br)c1 [Example 40, 3-(3,5-Dibromo-4-hydroxy-benzylidene)-5-trifluoromethoxy-1,3-dihydro-indol-2-one] | < 1000 nM | –
34 | 2,6-Dibromo-4-[(5-glycoloyl-2-oxo-1,2-dihydro-3H-indol-3-ylidene)methyl]phenyl ethyl carbonate [Example 155] | 10000 to 100000 nM | –
35 | O=C1Nc2ccc(C(=O)CN3CCOCC3)cc2C1=Cc1cc(Br)c(O)c(Br)c1 [Example 73] | < 1000 nM | –
36 | O=C1Nc2ccc(C(=O)c3ccco3)cc2C1=Cc1cc(Cl)c(O)c(Cl)c1 [Example 22] | < 1000 nM | –
